# Test results reported in patent US9526785B2, “Pharmaceuticals for oral delivery” (Enteris BioPharma, Inc., priority 2013, dated 2016).
# Several values for one entry are separate records, joined by “and”; a condition that tells them apart may be missing. Equal entries are not always repeated. Entries after “also recorded” stand apart in the source; their conditions may differ. Where two headings read alike, the source gives them in different places.
# Test: Tigecycline plasma PK and % F after PO enteric-coated capsule in dogs
# Type: in vivo, Beagle dogs
# Conditions: for bioavailability / AUC(0-t) / Cmax / Tmax / concentration at 0 min / concentration at 15 min / concentration at 30 min / concentration at 45 min: female, beagle, dog, plasma, po, 15 mg; for Tmax: read-out: Tmax (converted); for concentration at 0 min / concentration at 15 min / concentration at 30 min / concentration at 45 min: Tigecycline Plasma Concentration
# Protocol: Adult beagle dogs weighing approximately 9 to 15 kg were used in the study. […] Room temperature was set to be maintained between approximately 20±5° C. Relative humidity was monitored but not controlled.
# TEKLAD™ Certified Canine Diet was provided once daily in amounts (˜400 grams) appropriate for the size and age of the animals. Tap water was available ad libitum via automatic watering device or water bowls.
# Oral dosing of enteric-coated capsules was accomplished by administering them to the back of the dog's mouth, followed by a chase of 5 mL water to ensure swallowing.
# Water was provided ad libitum. […] Subsequently, each group of animals was dosed based on the protocol, i.e. either IV, or PO by capsule.
# Minocycline (VWR international) was used as an internal standard. Sample processing/clean-up of plasma samples was carried out offline by protein precipitation with acidified acetonitrile using 0.5% trifluoroacetic acid (TFA).
# The HPLC system consisted of Shimadzu SIL-HTc HPLC system equipped with dual Shimadzu LC-10ADvp isopumps, a Shimadzu CTO-10ASvp column temperature controller and a Shimadzu SPD-10Avp variable wavelength detector. […] Mobile phase A consisted of 23 mM phosphate buffer pH 2.5 with 4 mM 1-octanesulfonic acid, while mobile phase B consisting of 90% acetonitrile, 10% water, with 2 mM 1-octanesulfonic acid. […] The total runtime was 18 minutes per sample. The mobile phase flow rate was 1.2 mL/min. Detection was performed using the SPD-10Avp variable wavelength detector set at 350 nm, with a sensitivity of 0.001 aufs.
# The samples were then centrifuged under refrigeration at 13 k rpm for 5 minutes. The supernatant was taken and the liquid removed to dryness under nitrogen in a turbovap. The dried extract was reconstituted in 60 μL of mobile phase A and the suspension was further centrifuged at 5 k rpm for 5 minutes to pellet any insoluble matter. The resulting supernatant was then injected onto the LC.
# The unknown concentration in dog plasma samples was determined by interpolation of the peak area ratios of analyte:internal standard versus the ratio of their nominal concentrations into the regression line obtained from calibration standards spiked in pooled dog plasma. No regression weighting was used for the calculations. […] The calibration curve covered the range of 0.05 μg/mL to 5 μg/mL. […]
# The capsules were enterically coated using a standard preclinical protocol to 10% weight gain. Two studies were conducted.
# [1] = 15 min, PO 15 mg unformulated enteric-coated capsule, SC424, individual dogs
# [2] = 30 min, PO 15 mg unformulated enteric-coated capsule, SC424, individual dogs
# [3] = 45 min, PO 15 mg unformulated enteric-coated capsule, SC424, individual dogs
smiles,measurement,setting,value
CN(C)c1cc(NC(=O)CNC(C)(C)C)c(O)c2c1C[C@H]1C[C@H]3[C@H](N(C)C)C(O)=C(C(N)=O)C(=O)[C@@]3(O)C(O)=C1C2=O [Tigecycline],Tigecycline Plasma Concentration,[1],0.00 ng/mL
same,Tigecycline Plasma Concentration,[2],0.00 ng/mL
same,Tigecycline Plasma Concentration,[3],0.00 ng/mL
same,Tigecycline Plasma Concentration,"60 min, PO 15 mg unformulated enteric-coated capsule, SC424, individual dogs",0.00 ng/mL
same,Tigecycline Plasma Concentration,"75 min, PO 15 mg unformulated enteric-coated capsule, SC424, individual dogs",0.00 ng/mL
same,Tigecycline Plasma Concentration,"90 min, PO 15 mg unformulated enteric-coated capsule, SC424, individual dogs",0.00 ng/mL
same,Tigecycline Plasma Concentration,"120 min, PO 15 mg unformulated enteric-coated capsule, SC424, individual dogs",0.00 ng/mL
same,Tigecycline Plasma Concentration,"150 min, PO 15 mg unformulated enteric-coated capsule, SC424, individual dogs",0.00 ng/mL
same,% F,"PO 15 mg enteric-coated capsule with 500 mg CA and 100 mg LLC, SC424, calculated from IV data of SC427, individual dogs",13.6% and 3.9% and 30.3% and 17.0% and 2.0% and 8.3% and 12.0% and 10.6%
same,plasma exposure,PO 15 mg unformulated (microcrystalline cellulose filler) enteric-coated capsule (SC424),No tigecycline exposure was observed; also recorded: did not result in observable plasma exposure
same,% F,"PO 30 mg enteric-coated capsule with 500 mg CA and 100 mg LLC, SC430, calculated from IV PK data of SC431, individual dogs",7.9% and 23.3% and 12.8% and 2.6%
same,plasma exposure,PO 30 mg unformulated (microcrystalline cellulose filler) enteric-coated capsule (SC430),No tigecycline exposure was observed; also recorded: did not result in observable plasma exposure
same,% F,"PO 45 mg enteric-coated capsule with 500 mg CA and 100 mg LLC, SC430, calculated from IV PK data of SC431, individual dogs",18.4% and 6.3% and 6.4% and 14.8% and 31.8%
same,bioavailability,"15 mg Formulated (500 mg CA, 100 mg LLC) enteric coated capsule, Study 1 (SC424), mean (% CV), read-out: % F",12.2%
same,AUC(0-t),"15 mg Formulated (500 mg CA, 100 mg LLC) enteric coated capsule, Study 1 (SC424), mean (% CV), read-out: AUC(0-t)",133 ng·h/mL
same,Cmax,"15 mg Formulated (500 mg CA, 100 mg LLC) enteric coated capsule, Study 1 (SC424), mean (% CV), read-out: Cmax",75.5 ng/mL
same,Tmax,"15 mg Formulated (500 mg CA, 100 mg LLC) enteric coated capsule, Study 1 (SC424), mean (% CV)",1.85 h
same,bioavailability,"15 mg Unformulated enteric coated capsule, Study 1 (SC424), read-out: % F",0%
same,AUC(0-t),"PO 15 mg ([…]) enteric-coated capsule with 500 mg CA and 100 mg LLC (SC424), read-out: AUC(0-t), mean",133 ng·h/mL
same,Cmax,"PO 15 mg ([…]) enteric-coated capsule with 500 mg CA and 100 mg LLC (SC424), read-out: Cmax, mean",75.5 ng/mL
same,bioavailability,"PO 15 mg ([…]) enteric-coated capsule with 500 mg CA and 100 mg LLC (SC424), read-out: absolute % F, mean",12.2%
same,bioavailability,"PO 15 mg enteric-coated capsule with 500 mg CA and 100 mg LLC (SC424), read-out: % F, range of individual dogs",2 to 30%
same,AUC(0-t),"PO 15 mg enteric-coated capsule with 500 mg CA and 100 mg LLC ([…]), SC424, mean, read-out: AUC(0-t)",133 ng·h/mL
same,Cmax,"PO 15 mg enteric-coated capsule with 500 mg CA and 100 mg LLC ([…]), SC424, mean, read-out: Cmax",75.5 ng/mL
same,Tmax,"PO 15 mg enteric-coated capsule with 500 mg CA and 100 mg LLC ([…]), SC424, mean",1.85 h
same,bioavailability,"PO 15 mg enteric-coated capsule with 500 mg CA and 100 mg LLC, SC424, calculated from IV data of SC427, mean, read-out: % F",12.2%
same,bioavailability,"PO 15 mg unformulated enteric-coated capsule ([…]), SC424, individual dogs, read-out: % F",0%
same,bioavailability,"PO 15 mg unformulated enteric-coated capsule ([…]), SC424, mean, read-out: % F",0%
same,bioavailability,"Study 1 (SC424), 15 mg Formulated enteric coated capsule (500 mg citric acid, 100 mg LLC), oral, dogs, N=8, mean (% CV), based on that study's IV arm, read-out: % F",12.2%
same,Tmax,"Study 1 (SC424), 15 mg Formulated enteric coated capsule (500 mg citric acid, 100 mg LLC), oral, dogs, N=8, mean (% CV)",1.85 h
same,AUC(0-t),"Study 1 (SC424), 15 mg Formulated enteric coated capsule (500 mg citric acid, 100 mg LLC), oral, dogs, N=8, mean (% CV), sampling 4 h, read-out: AUC(0-t)",133 ng·h/mL
same,Cmax,"Study 1 (SC424), 15 mg Formulated enteric coated capsule (500 mg citric acid, 100 mg LLC), oral, dogs, N=8, mean (% CV), sampling 4 h, read-out: Cmax",75.5 ng/mL
same,bioavailability,"Study 1 (SC424), 15 mg Unformulated enteric coated capsule (microcrystalline cellulose filler), oral, dogs, N=8, based on that study's IV arm, read-out: % F",0%
same,concentration at 0 min,"PO 15 mg enteric-coated capsule with 500 mg CA and 100 mg LLC, SC424, individual dogs",0 ng/mL
same,concentration at 0 min,"PO 15 mg enteric-coated capsule with 500 mg CA and 100 mg LLC, SC424, mean",0 ng/mL
same,concentration at 15 min,"15 min, PO 15 mg enteric-coated capsule with 500 mg CA and 100 mg LLC, SC424, individual dogs",0 ng/mL
same,concentration at 15 min,"15 min, PO 15 mg enteric-coated capsule with 500 mg CA and 100 mg LLC, SC424, mean",0 ng/mL
same,concentration at 15 min,[1],0 ng/mL
same,concentration at 15 min,"15 min, PO 15 mg unformulated enteric-coated capsule, SC424, mean",0 ng/mL
same,concentration at 30 min,"30 min, PO 15 mg enteric-coated capsule with 500 mg CA and 100 mg LLC, SC424, individual dogs",0 ng/mL
same,concentration at 30 min,"30 min, PO 15 mg enteric-coated capsule with 500 mg CA and 100 mg LLC, SC424, mean",0 ng/mL
same,concentration at 30 min,[2],0 ng/mL
same,concentration at 30 min,"30 min, PO 15 mg unformulated enteric-coated capsule, SC424, mean",0 ng/mL
same,concentration at 45 min,"45 min, PO 15 mg enteric-coated capsule with 500 mg CA and 100 mg LLC, SC424, mean",8.45 ng/mL
same,concentration at 45 min,[3],0 ng/mL
same,concentration at 45 min,"45 min, PO 15 mg unformulated enteric-coated capsule, SC424, mean",0 ng/mL
